In one assay the target is T1, human GlyT1c transporter (Homo sapiens, UniProt P48067).
T1 construct: expressed in transfected cells; host or cells: recombinant hGlyT1-expressing cells
T1 sequence (P48067 1-706): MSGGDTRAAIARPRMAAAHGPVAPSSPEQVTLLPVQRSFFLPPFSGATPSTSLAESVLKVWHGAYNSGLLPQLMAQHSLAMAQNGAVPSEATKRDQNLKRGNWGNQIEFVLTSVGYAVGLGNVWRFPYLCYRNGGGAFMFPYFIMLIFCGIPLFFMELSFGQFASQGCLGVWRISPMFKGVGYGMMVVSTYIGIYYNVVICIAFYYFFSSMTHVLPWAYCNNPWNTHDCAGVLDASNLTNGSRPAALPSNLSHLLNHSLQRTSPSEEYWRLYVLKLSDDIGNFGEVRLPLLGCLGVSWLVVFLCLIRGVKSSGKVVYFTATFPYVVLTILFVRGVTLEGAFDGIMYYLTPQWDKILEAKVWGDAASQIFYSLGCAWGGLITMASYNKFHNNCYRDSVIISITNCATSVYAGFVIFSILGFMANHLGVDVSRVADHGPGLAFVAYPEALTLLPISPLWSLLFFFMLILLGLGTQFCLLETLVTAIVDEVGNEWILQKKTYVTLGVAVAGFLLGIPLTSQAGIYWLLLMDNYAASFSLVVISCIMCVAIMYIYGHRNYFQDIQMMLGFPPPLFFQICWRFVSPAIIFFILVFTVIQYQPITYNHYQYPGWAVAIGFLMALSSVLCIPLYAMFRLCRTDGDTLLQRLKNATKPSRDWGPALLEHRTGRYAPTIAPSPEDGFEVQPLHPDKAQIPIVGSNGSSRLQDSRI
In words: [3H]-(R)-NPTS radioligand binding assay using recombinant hGlyT1 expressing cell membranes. The conditions noted are these: 0.5 nM [3H]-(R)-NPTS, apparent Ki via Cheng-Prusoff, read-out: [3H]-(R)-NPTS bindung Ki. Put shortly:
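Membranes expressing human GlyT1c (50 μg/ml protein) were incubated with 0.5 nM [3H]-(R)-NPTS in pH 7.5 HEPES/NaCl buffer with 1% DMSO for 1 h at room temperature, then filtered. Non-specific binding was defined with 10 μM Org24598, and IC50 values were converted to apparent Ki by Cheng-Prusoff.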

The target in another assay is T2, Human GlyT1c (Homo sapiens, UniProt P48067).
T2 construct: expressed in transfected cells; host or cells: CHO (hGlyT1c_5_CHO clone)
T2 sequence (P48067 1-706): T1 sequence (P48067 1-706)
In words: Glycine uptake in recombinant hGlyT1 expressing cells. It counts as cell-based. The following applies: hGlyT1c_5_CHO cells; [3H]-glycine uptake, 60-120 min. In a few lines:
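Recombinant hGlyT1c CHO cells were washed in HBSS with 5 mM L-alanine, then given inhibitor and [3H]-glycine. Uptake was counted continuously by solid-phase scintillation for up to 3 h, with nonspecific uptake defined by 10 μM Org24598. IC50 came from four-parameter logistic fits over the linear 60–120 min range.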

pIC50, pKi: −log10 of the molar value.

In the case of `Cc1cc(NCc2ccc(F)cc2)c2ccccc2n1` [Example 90, (4-Fluorobenzyl)-(2-methylquinoline-4-yl)-amine], the negative logarithm of the Ki (pKi) at human GlyT1c transporter was at least 6.00. The pIC50 at Human GlyT1c was at least 6.00.

For the compound `Cc1cc(NCc2cccc(Cl)c2Cl)c2ccccc2n1` [Example 91, (2,3-Dichloro-benzyl)-(2-methylquinolin-4-yl)-amine], on human GlyT1c transporter, the negative-log Ki (pKi) is at least 5.00. Also, the pIC50 at Human GlyT1c is at least 5.00.

As for `Cc1cc(NCc2ccc(Cl)c(Cl)c2)c2cccc([S+](C)[O-])c2n1` (centres unmarked) [Example 92, (3,4-Dichlorobenzyl)-(8-methanesulfinyl-2-methylquinolin-4-yl)-amine], at human GlyT1c transporter, the pKi was at least 6.00. For the same compound, on Human GlyT1c, the pIC50 is at least 6.00.

As for `Cc1cc(NCc2ccc(Cl)c(Cl)c2)c2cccc(S(C)(=O)=O)c2n1` [Example 93, (3,4-Dichlorobenzyl)-(8-methanesulfonyl-2-methylquinolin-4-yl)-amine], at human GlyT1c transporter, the pKi is at least 6.00. At Human GlyT1c, the pIC50 is at least 5.00.

As for `CN(C)c1cc(NCc2ccccc2)c2ccccc2n1` [Example 94, N*4*-Benzyl-N*2*,N*2*-dimethylquinoline-2,4-diamine], the pKi at human GlyT1c transporter is at least 5.00. In addition, on Human GlyT1c, the pIC50 is at least 4.00.

For the compound `CN(C)c1cc(NCc2ccc(Cl)c(Cl)c2)c2ccccc2n1` [Example 95, N*4*-(3,4-Dichlorobenzyl)-N*2*,N*2*-dimethylquinoline-2,4-diamine], the pKi on human GlyT1c transporter was at least 7.00. Besides, the pIC50 on Human GlyT1c was at least 7.00.

Take `CN(C)c1cc(NCc2ccc(Cl)cc2Cl)c2ccccc2n1` [Example 96, N*4*-(2,4-Dichlorobenzyl)-N*2*,N*2*-dimethylquinoline-2,4-diamin]: the pKi on human GlyT1c transporter was at least 6.00. For the same compound, the negative logarithm of the IC50 (pIC50) on Human GlyT1c is at least 5.00.

Broadly, the pKi is the negative decadic logarithm of the Ki, by convention in mol/L. As a reminder, the pIC50 is the negative decadic logarithm of the IC50, by convention in mol/L.
